Test results taken from patent US10736898B2, “Positive allosteric modulators of the muscarinic acetylcholine receptor M4” (Vanderbilt University, priority 2017, dated 2020).

Assays:
[1] = target: T1, Human M4 (Homo sapiens, UniProt P08173); experiment: mAChR M4 cell-based functional assay (calcium flux, potentiation of EC20 acetylcholine response); conditions: for Emax at 30 µM: % ACh maximum at 30 μM, human M4; for EC50: CHO-K1 cells with human M4 and Gqi5, increase in EC20 acetylcholine response
T1 construct: expressed in transfected cells
T1 sequence (P08173 1-479): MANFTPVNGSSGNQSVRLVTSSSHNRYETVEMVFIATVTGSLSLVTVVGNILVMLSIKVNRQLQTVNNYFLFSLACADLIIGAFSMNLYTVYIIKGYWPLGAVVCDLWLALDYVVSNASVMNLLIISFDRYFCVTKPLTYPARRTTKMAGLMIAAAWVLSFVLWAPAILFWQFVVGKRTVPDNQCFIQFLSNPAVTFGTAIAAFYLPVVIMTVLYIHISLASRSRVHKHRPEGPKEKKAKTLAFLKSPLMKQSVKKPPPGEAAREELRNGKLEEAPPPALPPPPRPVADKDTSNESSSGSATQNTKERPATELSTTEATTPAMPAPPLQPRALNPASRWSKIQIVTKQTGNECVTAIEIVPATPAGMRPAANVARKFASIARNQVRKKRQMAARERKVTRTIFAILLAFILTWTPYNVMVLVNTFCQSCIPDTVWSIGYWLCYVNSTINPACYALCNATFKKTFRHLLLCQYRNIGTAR
Procedure: Human M4 cDNA, along with the chimeric G protein Gqi5, were transfected into Chinese hamster ovary (CHO-K1) cells purchased from the American Type Culture Collection using commercially available Lipofectamine 2000 transfection reagent (Dalby, B. et al., Methods (2004) 33(2), 95-103). hM4-Gqi5 cells were grown in Ham's F-12 medium containing 10% heat-inactivated fetal bovine serum (FBS), 20 mM HEPES, 50 μg/mL G418 sulfate (CAS #108321-42-2), and 500 μg/mL Hygromycin B. rM4-Gqi5 cells were grown in DMEM containing 10% heat-inactivated FBS, 20 mM HEPES, 400 μg/mL G418 sulfate, and 500 μg/mL Hygromycin B.
For high throughput measurement of agonist-evoked increases in intracellular calcium, CHO-K1 cells stably expressing muscarinic receptors were plated in growth medium lacking G418 sulfate and hygromycin at 15,000 cells/20 μL/well in Greiner 384-well black-walled, tissue culture (TC)-treated, clear-bottom plates (VWR). Cells were incubated overnight at 37° C. and 5% CO2. The next day, cells were washed using an ELX 405 (BioTek) with assay buffer; the final volume was then aspirated to 20 μL. […] Dye was removed by washing with the ELX 405 and the final volume was aspirated to 20 μL. Compound master plates were formatted in an 11 point concentration-response curve (CRC) format (1:3 dilutions) in 100% DMSO with a starting concentration of 10 mM using a BRAVO liquid handler (Agilent). Test compound CRCs were then transferred to daughter plates (240 nL) using the Echo acoustic plate reformatter (Labcyte, Sunnyvale, Calif.) and then diluted into assay buffer (40 μL) to a 2× stock using a Thermo Fisher Combi (Thermo Fisher Scientific, Waltham, Mass.).
Calcium flux was measured using the Functional Drug Screening System (FDSS) 6000 or 7000 (Hamamatsu Corporation, Tokyo, Japan) as an increase in the fluorescent static ratio. Compounds were applied to cells (20 μL, 2×) using the automated system of the FDSS at 2-4 seconds into the protocol and the data were collected at 1 Hz. At 144 seconds, 10 μL of an EC20 concentration of the muscarinic receptor agonist acetylcholine was added (5×), followed by the addition of 12 μL of an EC80 concentration of acetylcholine at the 230 second time point (5×). Agonist activity was analyzed as a concentration-dependent increase in calcium mobilization upon compound addition. Positive allosteric modulator activity was analyzed as a concentration-dependent increase in the EC20 acetylcholine response. […] Antagonist activity was analyzed as a concentration-dependent decrease in the EC80 acetylcholine response. Concentration-response curves were generated using a four-parameter logistical equation in XLFit curve fitting software (IDBS, Bridgewater, N.J.) for Excel (Microsoft, Redmond, Wash.) or Prism (GraphPad Software, Inc., San Diego, Calif.).

[2] = test system: male Sprague-Dawley rats; experiment: Reversal of amphetamine-induced hyperlocomotion in rats; assay type: in vivo, rat; conditions: 10 mg/kg p.o.
Procedure: Drugs: d-Amphetamine hemisulfate was obtained from Sigma (St. Louis, Mo.). Salt-correction was used to determine the correct amount of the d-amphetamine hemisulfate form in milligrams to add to sterile water in order to yield a 0.75 mg/mL solution, which would be dosed at 1 mL/kg body weight of each animal. […] The solutions were formulated so that animals were injected with a volume equal to 10 mL/kg body weight for all compounds. The appropriate amount according to the dosage was mixed in 10% Tween 80 (Sigma) 90% sterile water. The mixtures were then vortexed and stored in a 39° C. sonication bath for 1 hour, until in a microsuspension (except for the highest dose, which was a suspension).
Animals: Male Sprague-Dawley rats weighing 239-300 grams and averaging 265 g (Harlan, Inc., Indianapolis, Ind.) were used. They were housed in the animal care facility certified by the American Association for the Accreditation of Laboratory Animal Care (AALAC) under a 12-hour light/dark cycle (lights on: 6 a.m.; lights off: 6 p.m.) and had free access to food and water. The animals used in this experiment were food-deprived the evening before experimentation for oral dosing of compound/vehicle. The experimental protocols performed during the light cycle were approved by the Institutional Animals Care and Use Committee of Vanderbilt University and conformed to the guidelines established by the National Research Council Guide for the Care and Use of Laboratory Animals.
Amphetamine-induced Hyperlocomotion: Male Harlan Sprague Dawley rats were habituated in Smart Open Field locomotor activity test chambers (Hamilton-Kinder, San Diego, Calif.) with 16×16 photo beams to automatically record locomotor activity. […] They were monitored for an additional 30 minutes and then injected subcutaneously with vehicle or […] amphetamine. Animals were then monitored for an additional 60 minutes, for a total of 120 minutes. Data were expressed as changes in ambulation defined as total number of beam breaks per 5 minute interval. […]
Data Analysis: Behavioral data were analyzed using a two-way ANOVA with main effects of treatment and time. […] In addition, the total number of beam breaks from the amphetamine administration (65 min) to the end of the study (120 min) was calculated and graphed. Percent Reversal was calculated as follows using Microsoft Excel: In each animal, total ambulation from t=65 to t=120 was summed. The mean of each sum was calculated in the VAMP group. Then, for each animal, Percent Reversal was calculated with the following formula: Percent Reversal=100−{[(total ambulation in each animal from t=65 to t=120)/(mean of each sum from t=65 to t=120 in VAMP group)]*100}. The mean Percent Reversal, as well as the standard error, was calculated for each dose group using GraphPad Prism V5.04.

Compound	Emax at 30 µM [1]	EC50 [1]	percent reversal of amphetamine-induced hyperlocomotion [2]
Cc1nc(C2CC2)nc2sc3c(NCc4ccc(F)c(F)c4)nccc3c12 [Compound 29, 2-cyclopropyl-N-[(3,4-difluorophenyl)methyl]-4-methyl-pyrido[4,5]thieno[1,2-d]pyrimidin-8-amine]	62.4%	6.69 µM	–
Cc1nc(C2CC2)nc2sc3c(N4CCOCC4)nccc3c12 [Compound 30, 4-(2-cyclopropyl-4-methyl-pyrido[4,5]thieno[1,2-d]pyrimidin-8-yl)morpholine]	74.2%	0.449 µM	–
Cc1nc(C)c2c(n1)sc1c(NCc3ccc(C(C)(C)O)c(F)c3)nccc12 [Compound 31, 2-[4-[[(2,4-dimethylpyrido[4,5]thieno[1,2-b]pyrimidin-8-yl)amino]methyl]-2-fluoro-phenyl]propan-2-ol]	85.8%	0.237 µM	–
Cc1nc(C2CC2)nc2sc3c(NC4CC4)nccc3c12 [Compound 32, N,2-dicyclopropyl-4-methyl-pyrido[4,5]thieno[1,2-d]pyrimidin-8-amine]	103%	0.129 µM	–
CCc1nc(C)c2c(n1)sc1c(NCc3ccc(OC)c(F)c3)nccc12 [Compound 33, 2-ethyl-N-[(3-fluoro-4-methoxy-phenyl)methyl]-4-methyl-pyrido[4,5]thieno[1,2-b]pyrimidin-8-amine]	87.4%	1.33 µM	–
CCc1nc(C)c2c(n1)sc1c(NCc3ccc(C(C)(C)O)cc3)nccc12 [Compound 34, 2-[4-[[(2-ethyl-4-methyl-pyrido[4,5]thieno[1,2-b]pyrimidin-8-yl)amino]methyl]phenyl]propan-2-ol]	88.1%	0.601 µM	–
CCc1nc(C)c2c(n1)sc1c(N3CCC(F)(F)C3)nccc12 [Compound 35, 8-(3,3-difluoropyrrolidin-1-yl)-2-ethyl-4-methyl-pyrido[4,5]thieno[1,2-b]pyrimidine]	96.9%	0.263 µM	–
Cc1nc(CC(C)C)nc2sc3c(NCc4ccc(C(C)(C)O)cc4)nccc3c12 [Compound 36, 2-[4-[[(2-isobutyl-4-methyl-pyrido[4,5]thieno[1,2-b]pyrimidin-8-yl)amino]methyl]phenyl]propan-2-ol]	66.4%	> 10 µM	–
Cc1nc(C2CC2)nc2sc3c(N4CCCCC4)nccc3c12 [Compound 37, 2-cyclopropyl-4-methyl-8-(1-piperidyl)pyrido[4,5]thieno[1,2-d]pyrimidine]	55%	> 10 µM	–
Cc1nc(C2CC2)nc2sc3c(N4CCCC4)nccc3c12 [Compound 38, 2-cyclopropyl-4-methyl-8-pyrrolidin-1-yl-pyrido[4,5]thieno[1,2-d]pyrimidine]	65%	1.01 µM	–
Cc1nc(C2CC2)nc2sc3c(NC4CCCC4)nccc3c12 [Compound 39, N-cyclopentyl-2-cyclopropyl-4-methyl-pyrido[4,5]thieno[1,2-d]pyrimidin-8-amine]	69%	1.86 µM	–
Cc1nc(C2CC2)nc2sc3c(N4CCC(F)CC4)nccc3c12 [Compound 40, 2-cyclopropyl-8-(4-fluoro-1-piperidyl)-4-methyl-pyrido[4,5]thieno[1,2-d]pyrimidine]	73%	1.47 µM	–
Cc1nc(C)c2c(n1)sc1c(NCc3ccc(C(C)(C)O)cc3)ncc(Cl)c12 [Compound 41, 2-(4-(((5-chloro-2,4-dimethylpyrido[4′,3′:4,5]thieno[2,3-d]pyrimidin-8-yl)amino)methyl)phenyl)propan-2-ol]	91.9%	3.3 µM	–
Cc1nc(C)c2c(n1)sc1c(NCc3ccc(F)c(F)c3)ncc(Cl)c12 [Compound 43, 5-chloro-N-[(3,4-difluorophenyl)methyl]-2,4-dimethyl-pyrido[4,5]thieno[1,2-b]pyrimidin-8-amine]	50.3%	4.35 µM	–
Cc1nc(C)c2c(n1)sc1c(NC3CCC3)ncc(Cl)c12 [Compound 44, 5-chloro-N-cyclobutyl-2,4-dimethyl-pyrido[4,5]thieno[1,2-b]pyrimidin-8-amine]	60.1%	0.997 µM	–
Cc1nc(C)c2c(n1)sc1c(NCc3ccc(C(C)(C)O)cc3)ncc(C#N)c12 [Compound 46, 8-((4-(2-hydroxypropan-2-yl)benzyl)amino)-2,4-dimethylpyrido[4′,3′:4,5]thieno[2,3-d]pyrimidine-5-carbonitrile]	66.7%	0.734 µM	–
Cc1nnc2sc(C(=O)NCc3ccc(S(=O)(=O)C(F)(F)F)cc3)c(N)c2c1C [VU0467154-9A, 5-amino-3,4-dimethyl-N-(4-((trifluoromethyl)sulfonyl)benzyl)thieno[2,3-c]pyridazine-6-carboxamide, reference compound]	–	–	55.0%
